The values that follow are results of earlier work, collected in patent US10543174B2, “Modified release tablet composition comprising mirabegron” (SYNTHON B.V., priority 2016, dated 2020).

The conditions of series [1]: presence of food in the GI tract.

In the case of `Nc1nc(CC(=O)Nc2ccc(CCNC[C@H](O)c3ccccc3)cc2)cs1` [Mirabegron, (R)-2-(2-aminothiazol-4-yl)-4′-[2-[(2-hydroxy-2-phenylethyl)amino]ethyl]acetic acid anilide], where the note is “BCS”, the solubility result is “high solubility”. The solubility in water entry (between neutral to acidic pH, EMA assessment report of Betmiga) is “soluble”. Further, the “bioavailability, food effect” value in series [1] was “affected by the presence of food”.
